Converted amounts (≈) assume the structure as drawn.
Key:
RPMI8226 cell line = assay: multiple myeloma cell growth inhibition, MTT; type: cell-based; conditions: Homo sapiens, RPMI-8226; for inhibition at 16 µg/mL: RPMI8226, 16 μg/mL compound, 72 h, read-out: IR (cell proliferation inhibition rate); for IC50: RPMI8226, 72 h
Procedure: Multiple myeloma cell lines: RPMI8226 (multiple myeloma), purchased from Fuxiang Bio-tech Co. Ltd., Shanghai, China.
(§1) Obtaining 6000 well-growing cells as above and inoculating them into wells of a 96-well cell culture plate. The culture medium is the 1640 cell culture medium containing 10% fetal bovine serum. After adding the 2-substituted oleanolic acid derivatives of different concentrations and mixing uniformly, placing the plate in a carbon dioxide cell incubator (5% CO2) at 37° C. and incubated for 72 hours. Then the relative number of viable cells is determined by MTT method. In this experiment, cell proliferation inhibition rate in control group (not treated with any compound) is set as 0%.

PANC-1 cell line = assay: solid tumor cell growth inhibition, MTT; type: cell-based; conditions: Homo sapiens; for IC50: PANC-1, 72 h; for inhibition at 16 µg/mL: PANC-1, 16 μg/mL compound, 72 h, read-out: IR (cell proliferation inhibition rate)
Procedure: (§2) Hep-2 (laryngeal carcinoma), A549 (human lung cancer), CaES-17 (esophageal cancer cell), PC-3 (prostate cancer), CNE (nasopharyngeal carcinoma cell), and SK-OV-3 (ovarian cancer cell), all of which are purchased from China Center For Type Culture Collection; RKO (human colon adenocarcinoma cell), MGC 803 (human gastric cancer cell), MG63 (osteosarcoma) and U87 MG (malignant glioma cell), all of which are purchased from Fuxiang Bio-tech Co. Ltd., Shanghai, China; PANC-1 (pancreatic cancer), Hep G2 (human liver cancer cell), Becap37 (human breast cancer cell), and Hela (human cervical cancer cell), all of which are donated by Cancer Research Institute of Zhejiang University, China.
(§3) Obtaining 4000 well-growing human solid tumor cells and inoculating them into wells of a 96-well cell culture plate. The culture medium is DMEM High Glucose cell culture medium containing 10% fetal bovine serum. The plate is placed in a carbon dioxide cell incubator (5% CO2) at 37° C. for 24 hours. After adding the 2-substituted oleanolic acid derivatives of different concentrations and mixing uniformly, the plate is placed in a carbon dioxide cell incubator (5% CO2) at 37° C. and incubated for 72 hours. Then the relative number of the living cells is determined by MTT method. In this experiment, the cell proliferation inhibition rate in control group (not treated with any compound) is set as 0%.

Becap37 cell line = assay: solid tumor cell growth inhibition, MTT; type: cell-based; conditions: Homo sapiens; for inhibition at 16 µg/mL: Becap37, 16 μg/mL compound, 72 h, read-out: IR (cell proliferation inhibition rate); for IC50: Becap37, 72 h
Procedure: as §2, §3

CaES-17 cell line = assay: solid tumor cell growth inhibition, MTT; type: cell-based; conditions: Homo sapiens, CaEs17; for inhibition at 16 µg/mL: CaES-17, 16 μg/mL compound, 72 h, read-out: IR (cell proliferation inhibition rate); for IC50: CaES-17, 72 h
Procedure: as §2, §3

CNE cell line = assay: solid tumor cell growth inhibition, MTT; type: cell-based; conditions: Homo sapiens, 72 h; for inhibition at 16 µg/mL: 16 μg/mL compound, read-out: IR (cell proliferation inhibition rate)
Procedure: as §2, §3

Hep-2 cell line = assay: solid tumor cell growth inhibition, MTT; type: cell-based; conditions: Homo sapiens; for IC50: HEp-2, 72 h; for inhibition at 16 µg/mL: Hep-2, 16 μg/mL compound, 72 h, read-out: IR (cell proliferation inhibition rate)
Procedure: as §2, §3

U87 MG cell line = assay: solid tumor cell growth inhibition, MTT; type: cell-based; conditions: Homo sapiens, U-87 MG, 72 h; for inhibition at 16 µg/mL: 16 μg/mL compound, read-out: IR (cell proliferation inhibition rate)
Procedure: as §2, §3

MGC 803 cell line = assay: solid tumor cell growth inhibition, MTT; type: cell-based; conditions: Homo sapiens; for inhibition at 16 µg/mL: MGC 803, 16 μg/mL compound, 72 h, read-out: IR (cell proliferation inhibition rate); for IC50: MGC 803, 72 h
Procedure: as §2, §3

SK-OV-3 cell line = assay: solid tumor cell growth inhibition, MTT; type: cell-based; conditions: Homo sapiens; for IC50: SK-OV-3, 72 h; for inhibition at 16 µg/mL: SK-OV-3, 16 μg/mL compound, 72 h, read-out: IR (cell proliferation inhibition rate)
Procedure: as §2, §3

MG-63 cell line = assay: solid tumor cell growth inhibition, MTT; type: cell-based; conditions: Homo sapiens; for IC50: MG-63, 72 h; for inhibition at 16 µg/mL: MG-63, 16 μg/mL compound, 72 h, read-out: IR (cell proliferation inhibition rate)
Procedure: as §2, §3

PC-3 cell line = assay: solid tumor cell growth inhibition, MTT; type: cell-based; conditions: Homo sapiens; for IC50: PC-3, 72 h; for inhibition at 16 µg/mL: PC-3, 16 μg/mL compound, 72 h, read-out: IR (cell proliferation inhibition rate)
Procedure: as §2, §3

Hela cell line = assay: solid tumor cell growth inhibition, MTT; type: cell-based; conditions: Homo sapiens, 72 h; for IC50: HeLa; for inhibition at 16 µg/mL: Hela, 16 μg/mL compound, read-out: IR (cell proliferation inhibition rate)
Procedure: as §2, §3

A549 cell line = assay: solid tumor cell growth inhibition, MTT; type: cell-based; conditions: Homo sapiens; for IC50: A549, 72 h; for inhibition at 16 µg/mL: A549, 16 μg/mL compound, 72 h, read-out: IR (cell proliferation inhibition rate)
Procedure: as §2, §3

RKO cell line = assay: solid tumor cell growth inhibition, MTT; type: cell-based; conditions: Homo sapiens, 72 h; for inhibition at 16 µg/mL: 16 μg/mL compound, read-out: IR (cell proliferation inhibition rate)
Procedure: as §2, §3

Hep G2 cell line = assay: solid tumor cell growth inhibition, MTT; type: cell-based, human; conditions: for inhibition at 16 µg/mL / IC50: Homo sapiens; for inhibition at 16 µg/mL: HepG2, 72 h, Hep G2, 16 μg/mL compound, 72 h, read-out: IR (cell proliferation inhibition rate); for IC50: HepG2, Hep G2, 72 h
Procedure: as §2, §3

H9 cell line = assay: leukemia cell growth inhibition, MTT; type: cell-based; conditions: Homo sapiens; for IC50: H9, 72 h; for inhibition at 16 µg/mL: H9, 16 μg/mL compound, 72 h, read-out: IR (cell proliferation inhibition rate)
From the text: (§4) Leukemia cell lines: leukemia cell lines: K562/adr (drug-resistant, chronic myeloid leukemia, CML), NB4 (acute promyelocytic leukemia, AML), Kasumi-1 (acute myeloid leukemia M2 type, AML-M2), Jurkat (acute lymphoblastic leukemia, ALL), all of which are donated by Cancer Research Institute of Zhejiang University, China; and H9 (acute lymphoblastic leukemia, ALL), which is purchased from China Center for Type Culture Collection (CCTCC).
as §1, with “well-growing leukemia” for “well-growing”, “cells” for “cells as above”

K562/adr cell line = assay: leukemia cell growth inhibition, MTT; type: cell-based; conditions: Homo sapiens, 72 h; for IC50: K562/Adr; for inhibition at 16 µg/mL: K562/adr, 16 μg/mL compound, read-out: IR (cell proliferation inhibition rate)
From the text: as §4
as §1, with “well-growing leukemia” for “well-growing”, “cells” for “cells as above”

NB4 cell line = assay: leukemia cell growth inhibition, MTT; type: cell-based; conditions: Homo sapiens, NB-4; for inhibition at 16 µg/mL: NB4, 16 μg/mL compound, 72 h, read-out: IR (cell proliferation inhibition rate); for IC50: NB4, 72 h
From the text: as §4
as §1, with “well-growing leukemia” for “well-growing”, “cells” for “cells as above”

Jurkat cell line = assay: leukemia cell growth inhibition, MTT; type: cell-based; conditions: Homo sapiens, 72 h; for inhibition at 16 µg/mL: 16 μg/mL compound, read-out: IR (cell proliferation inhibition rate)
From the text: as §4
as §1, with “well-growing leukemia” for “well-growing”, “cells” for “cells as above”

Kasumi-1 cell line = assay: leukemia cell growth inhibition, MTT; type: cell-based; conditions: Homo sapiens; for inhibition at 16 µg/mL: Kasumi-1, 16 μg/mL compound, 72 h, read-out: IR (cell proliferation inhibition rate); for IC50: Kasumi-1, 72 h
From the text: as §4
as §1, with “well-growing leukemia” for “well-growing”, “cells” for “cells as above”

`COC(=O)[C@]12CCC(C)(C)CC1C1=CCC3[C@@]4(C)CC(C(=O)NCCCN5CCN(C)CC5)C(=O)C(C)(C)C4CC[C@@]3(C)[C@]1(C)CC2` (stereo partly drawn) [BS-OA-078] was tested, and the inhibition at 16 µg/mL (RPMI8226 cell line) was 99.1%, the IC50 (RPMI8226 cell line) was 0.74 µg/mL (≈ 1.14 µM) and the IC50 (PANC-1 cell line) was 9.69 µg/mL (≈ 14.9 µM). For the same molecule, the inhibition at 16 µg/mL (PANC-1 cell line) was 100%, the inhibition at 16 µg/mL (Becap37 cell line) was 98.1% and the IC50 (Becap37 cell line) was 6.23 µg/mL (≈ 9.56 µM). For the same molecule, the inhibition at 16 µg/mL (CaES-17 cell line) was 99.4%, the IC50 (CaES-17 cell line) was 3.61 µg/mL (≈ 5.54 µM) and the inhibition at 16 µg/mL (CNE cell line) was 99.7%. For the same molecule, the IC50 (CNE cell line) was 5.01 µg/mL (≈ 7.68 µM), the IC50 (Hep-2 cell line) was 8.25 µg/mL (≈ 12.7 µM) and the inhibition at 16 µg/mL (Hep-2 cell line) was 97.3%. For the same molecule, the inhibition at 16 µg/mL (U87 MG cell line) was 98.6%, the IC50 (U87 MG cell line) was 3 µg/mL (≈ 4.6 µM) and the inhibition at 16 µg/mL (MGC 803 cell line) was 99.5%. It also gave an IC50 (MGC 803 cell line) of 5.26 µg/mL (≈ 8.07 µM), an IC50 (SK-OV-3 cell line) of 5.49 µg/mL (≈ 8.42 µM) and an inhibition at 16 µg/mL (SK-OV-3 cell line) of 98.9%. For the same molecule, the IC50 (MG-63 cell line) was 5.7 µg/mL (≈ 8.74 µM), the inhibition at 16 µg/mL (MG-63 cell line) was 100% and the IC50 (PC-3 cell line) was 6.82 µg/mL (≈ 10.5 µM). The inhibition at 16 µg/mL (PC-3 cell line) was 98.4%, the IC50 (Hela cell line) was 4.54 µg/mL (≈ 6.96 µM) and the inhibition at 16 µg/mL (Hela cell line) was 99.4%. It also gave an IC50 (A549 cell line) of 3.58 µg/mL (≈ 5.49 µM), an inhibition at 16 µg/mL (A549 cell line) of 97.6% and an inhibition at 16 µg/mL (RKO cell line) of 97.5%. For the same molecule, the IC50 (RKO cell line) was 3.91 µg/mL (≈ 6 µM), the inhibition at 16 µg/mL (Hep G2 cell line) was 99.7% and the IC50 (Hep G2 cell line) was 4.77 µg/mL (≈ 7.32 µM). The IC50 (H9 cell line) was 4.33 µg/mL (≈ 6.64 µM), the inhibition at 16 µg/mL (H9 cell line) was 97.5% and the IC50 (K562/adr cell line) was 0.89 µg/mL (≈ 1.37 µM). For the same molecule, the inhibition at 16 µg/mL (K562/adr cell line) was 99.1%, the inhibition at 16 µg/mL (NB4 cell line) was 100% and the IC50 (NB4 cell line) was 4.59 µg/mL (≈ 7.04 µM). For the same molecule, the inhibition at 16 µg/mL (Jurkat cell line) was 98.3%, the IC50 (Jurkat cell line) was 2.5 µg/mL (≈ 3.83 µM) and the inhibition at 16 µg/mL (Kasumi-1 cell line) was 97.9%. The IC50 (Kasumi-1 cell line) was 5.67 µg/mL (≈ 8.7 µM).
For `CC1(C)CC[C@]2(C(=O)O)CC[C@]3(C)C(=CC[C@@H]4[C@@]5(C)CC[C@H](O)C(C)(C)[C@@H]5CC[C@]43C)[C@@H]2C1` [OA, Oleanolic acid], the inhibition at 16 µg/mL (RPMI8226 cell line) was 2.2%, the IC50 (RPMI8226 cell line) was > 16 µg/mL and the IC50 (PANC-1 cell line) was > 16 µg/mL. The inhibition at 16 µg/mL (PANC-1 cell line) was 8.5%, the inhibition at 16 µg/mL (Becap37 cell line) was 23.4% and the IC50 (Becap37 cell line) was > 16 µg/mL. The inhibition at 16 µg/mL (CaES-17 cell line) was 27.4%, the IC50 (CaES-17 cell line) was > 16 µg/mL and the inhibition at 16 µg/mL (CNE cell line) was 33.9%. The IC50 (CNE cell line) was > 16 µg/mL, the IC50 (Hep-2 cell line) was > 16 µg/mL and the inhibition at 16 µg/mL (Hep-2 cell line) was 9.8%. For the same molecule, the inhibition at 16 µg/mL (U87 MG cell line) was 21.8%, the IC50 (U87 MG cell line) was > 16 µg/mL and the inhibition at 16 µg/mL (MGC 803 cell line) was 19.7%. For the same molecule, the IC50 (MGC 803 cell line) was > 16 µg/mL, the IC50 (SK-OV-3 cell line) was > 16 µg/mL and the inhibition at 16 µg/mL (SK-OV-3 cell line) was 8.3%. For the same molecule, the IC50 (MG-63 cell line) was > 16 µg/mL, the inhibition at 16 µg/mL (MG-63 cell line) was 29.2% and the IC50 (PC-3 cell line) was > 16 µg/mL. For the same molecule, the inhibition at 16 µg/mL (PC-3 cell line) was 29.1%, the IC50 (Hela cell line) was > 16 µg/mL and the inhibition at 16 µg/mL (Hela cell line) was 22.9%. The IC50 (A549 cell line) was > 16 µg/mL, the inhibition at 16 µg/mL (A549 cell line) was 5% and the inhibition at 16 µg/mL (RKO cell line) was 14.3%. The IC50 (RKO cell line) was > 16 µg/mL, the “proliferation inhibition effect (in words)” value (Hep G2 cell line; Hep G2) was “does not exhibit obvious proliferation inhibition effect” and the inhibition at 16 µg/mL (Hep G2 cell line) was -18.5%. For the same molecule, the IC50 (Hep G2 cell line) was > 16 µg/mL, the IC50 (H9 cell line) was > 16 µg/mL and the inhibition at 16 µg/mL (H9 cell line) was 22.8%. The IC50 (K562/adr cell line) was > 16 µg/mL, the inhibition at 16 µg/mL (K562/adr cell line) was 26.5% and the inhibition at 16 µg/mL (NB4 cell line) was 17.2%. The IC50 (NB4 cell line) was > 16 µg/mL, the inhibition at 16 µg/mL (Jurkat cell line) was 9.4% and the IC50 (Jurkat cell line) was > 16 µg/mL. For the same molecule, the inhibition at 16 µg/mL (Kasumi-1 cell line) was 17.2% and the IC50 (Kasumi-1 cell line) was > 16 µg/mL.
